According to patent US20030086873A1, “Myocardial imaging agent and preparation method thereof” (priority 2001, published 2003):

Legend:
Assay type in all cases: in vivo
[1] = Biological distribution in the bodies of Kunming mice after caudal vein injection
Experimental: The complexes [^99mTc(CO)3(OH2)3]^+ and [^99mTc(CO)3(MIBI)3]^+ prepared in Example 1 were separately injected in the caudal vein of Kunming mice. The experiment was conducted on three mice within each time period, and the injection's activity was 925 KBq. The radioactivity of individual organs's tissue was measured at 5, 15, 30, and 60 minutes after the injection, and the results are represented by radioactive uptake rate per gram of tissue.
The results of the distribution of [^99mTc(CO)3(OH2)3]^+ in the mice's bodies are included in Tables 2; the results for [^99mTc(CO)3(MIBI)3]^+ are presented in Table 3. The value “% ID/g” is the percentage of the injection's total radioactivity that each gram of tissue accounts for i.e., the radioactive uptake rate per gram of tissue, with ID standing for “injected dose.”

[2] = Blood clearance kinetics in dogs (vein blood samples); details: intravenous administration, secondary model
Experimental: (§1) Dogs were intravenously injected with [^99mTc(CO)3(MIBI)3]^+ or [^99mTc(MIBI)6][…]at dose of […]. Immediately following injection, dynamic photography for up to 120 min was performed using a Toshiba GCA 7200A two-probe SPECT and a low energy parallel aperture regular collimator. Time—radioactivity curves were also collected for the heart, liver, lungs, and kidneys. Target/non-target radioactivity ratios were calculated, and fall body imaging was performed separately at different times. The biological distributions of the imaging agents in the body were analyzed. Vein blood samples were collected separately at different times, and the dynamics of the blood clearance was analyzed. Flat myocardial imaging was conducted separately at different times, with myocardial tomographic imaging at 120 minutes post injection.

[3] = Dynamic SPECT imaging and biological distribution in dogs after intravenous injection; details: for Heart biological distribution / Kidneys biological distribution / Liver biological distribution / Lungs biological distribution: i.v.
Experimental: as §1

COC(C)(C)CN=[C]=[99Tc+](=[C]=O)(=[C]=O)(=[C]=O)(=[C]=NCC(C)(C)OC)=[C]=NCC(C)(C)OC [[^99mTc(CO)3(MIBI)3]^+]
Target/Non-Target Uptake Ratio Heart/Blood ([1]; 5 Minutes): 20.99 | Target/Non-Target Uptake Ratio Heart/Liver ([1]; 5 Minutes): 1.88 | Target/Non-Target Uptake Ratio Heart/Lungs ([1]; 5 Minutes): 3.51 | Blood radioactive uptake per gram of tissue ([1]; 5 Minutes after injection): 1.03 ± 0.21 % ID/g | Bones radioactive uptake per gram of tissue ([1]; 5 Minutes after injection): 3.72 ± 0.84 % ID/g | Brain radioactive uptake per gram of tissue ([1]; 5 Minutes after injection): 0.18 ± 0.02 % ID/g | Heart radioactive uptake per gram of tissue ([1]; 5 Minutes after injection): 21.62 ± 2.84 % ID/g | Kidneys radioactive uptake per gram of tissue ([1]; 5 Minutes after injection): 57.90 ± 1.80 % ID/g | Liver radioactive uptake per gram of tissue ([1]; 5 Minutes after injection): 11.48 ± 0.88 % ID/g | Lungs radioactive uptake per gram of tissue ([1]; 5 Minutes after injection): 6.16 ± 0.48 % ID/g | Muscles radioactive uptake per gram of tissue ([1]; 5 Minutes after injection): 7.08 ± 0.52 % ID/g | Spleen radioactive uptake per gram of tissue ([1]; 5 Minutes after injection): 6.26 ± 1.29 % ID/g | Target/Non-Target Uptake Ratio Heart/Blood ([1]; 15 Minutes): 64.47 | Target/Non-Target Uptake Ratio Heart/Liver ([1]; 15 Minutes): 2.49 | Target/Non-Target Uptake Ratio Heart/Lungs ([1]; 15 Minutes): 4.98 | Blood radioactive uptake per gram of tissue ([1]; 15 Minutes after injection): 0.32 ± 0.05 % ID/g | Bones radioactive uptake per gram of tissue ([1]; 15 Minutes after injection): 2.10 ± 0.10 % ID/g | Brain radioactive uptake per gram of tissue ([1]; 15 Minutes after injection): 0.18 ± 0.02 % ID/g | Heart radioactive uptake per gram of tissue ([1]; 15 Minutes after injection): 20.63 ± 3.89 % ID/g | Kidneys radioactive uptake per gram of tissue ([1]; 15 Minutes after injection): 33.66 ± 0.42 % ID/g | Liver radioactive uptake per gram of tissue ([1]; 15 Minutes after injection): 8.28 ± 0.90 % ID/g | Lungs radioactive uptake per gram of tissue ([1]; 15 Minutes after injection): 4.14 ± 0.90 % ID/g | Muscles radioactive uptake per gram of tissue ([1]; 15 Minutes after injection): 3.78 ± 0.88 % ID/g | Spleen radioactive uptake per gram of tissue ([1]; 15 Minutes after injection): 3.84 ± 0.90 % ID/g | Target/Non-Target Uptake Ratio Heart/Blood ([1]; 30 Minutes): 86.54 | Target/Non-Target Uptake Ratio Heart/Liver ([1]; 30 Minutes): 3.23 | Target/Non-Target Uptake Ratio Heart/Lungs ([1]; 30 Minutes): 5.34 | Blood radioactive uptake per gram of tissue ([1]; 30 Minutes after injection): 0.24 ± 0.07 % ID/g | Bones radioactive uptake per gram of tissue ([1]; 30 Minutes after injection): 1.94 ± 0.29 % ID/g | Brain radioactive uptake per gram of tissue ([1]; 30 Minutes after injection): 0.12 ± 0.01 % ID/g | Heart radioactive uptake per gram of tissue ([1]; 30 Minutes after injection): 20.77 ± 1.60 % ID/g | Kidneys radioactive uptake per gram of tissue ([1]; 30 Minutes after injection): 23.94 ± 2.11 % ID/g | Liver radioactive uptake per gram of tissue ([1]; 30 Minutes after injection): 6.44 ± 1.03 % ID/g | Lungs radioactive uptake per gram of tissue ([1]; 30 Minutes after injection): 3.89 ± 0.54 % ID/g | Muscles radioactive uptake per gram of tissue ([1]; 30 Minutes after injection): 6.14 ± 0.78 % ID/g | Spleen radioactive uptake per gram of tissue ([1]; 30 Minutes after injection): 2.84 ± 0.41 % ID/g | Target/Non-Target Uptake Ratio Heart/Blood ([1]; 60 Minutes): 149.15 | Target/Non-Target Uptake Ratio Heart/Liver ([1]; 60 Minutes): 4.13 | Target/Non-Target Uptake Ratio Heart/Lungs ([1]; 60 Minutes): 6.06 | Blood radioactive uptake per gram of tissue ([1]; 60 Minutes after injection): 0.13 ± 0.04 % ID/g | Bones radioactive uptake per gram of tissue ([1]; 60 Minutes after injection): 1.42 ± 0.31 % ID/g | Brain radioactive uptake per gram of tissue ([1]; 60 Minutes after injection): 0.08 ± 0.01 % ID/g | Heart radioactive uptake per gram of tissue ([1]; 60 Minutes after injection): 19.39 ± 0.91 % ID/g | Kidneys radioactive uptake per gram of tissue ([1]; 60 Minutes after injection): 11.30 ± 0.73 % ID/g | Liver radioactive uptake per gram of tissue ([1]; 60 Minutes after injection): 4.69 ± 0.34 % ID/g | Lungs radioactive uptake per gram of tissue ([1]; 60 Minutes after injection): 3.20 ± 0.85 % ID/g | Muscles radioactive uptake per gram of tissue ([1]; 60 Minutes after injection): 4.42 ± 0.36 % ID/g | Spleen radioactive uptake per gram of tissue ([1]; 60 Minutes after injection): 1.62 ± 0.32 % ID/g | Concentration in livers ([1]; in words): comparatively low | Specific concentration in tissues / heart ([1]; in words): apparent concentration | heart:blood ratio compared with [^99mTc(MIBI)6]^+ ([1]; in words): comparable | heart:liver ratio compared with [^99mTc(MIBI)6]^+ ([1]; in words): higher | Radioactive retention ([1]; within 60 minutes, in words): good radioactive retention | CL (blood clearance) [2]: 401.33 ± 73.51 mL/h | T(α)⅓ of blood clearance curve [2]: 1.33 ± 0.12 min | T(β)½ of blood clearance curve [2]: 102.33 ± 25.58 min | Target/Non-Target Uptake Ratio Heart/Kidneys ([3]; 2 Minutes): 0.56 ± 0.13 | Target/Non-Target Uptake Ratio Heart/Liver ([3]; 2 Minutes): 1 ± 0.18 | Target/Non-Target Uptake Ratio Heart/Lungs ([3]; 2 Minutes): 2.51 ± 0.25 | Target/Non-Target Uptake Ratio Heart/Kidneys ([3]; 5 Minutes): 0.53 ± 0.12 | Target/Non-Target Uptake Ratio Heart/Liver ([3]; 5 Minutes): 0.98 ± 0.11 | Target/Non-Target Uptake Ratio Heart/Lungs ([3]; 5 Minutes): 2.67 ± 0.27 | Target/Non-Target Uptake Ratio Heart/Kidneys ([3]; 10 Minutes): 0.53 ± 0.1 | Target/Non-Target Uptake Ratio Heart/Liver ([3]; 10 Minutes): 0.92 ± 0.13 | Target/Non-Target Uptake Ratio Heart/Lungs ([3]; 10 Minutes): 2.6 ± 0.26 | Target/Non-Target Uptake Ratio Heart/Kidneys ([3]; 20 Minutes): 0.59 ± 0.1 | Target/Non-Target Uptake Ratio Heart/Liver ([3]; 20 Minutes): 0.97 ± 0.1 | Target/Non-Target Uptake Ratio Heart/Lungs ([3]; 20 Minutes): 2.8 ± 0.44 | Target/Non-Target Uptake Ratio Heart/Kidneys ([3]; 30 Minutes): 0.62 ± 0.15 | Target/Non-Target Uptake Ratio Heart/Liver ([3]; 30 Minutes): 1.02 ± 0.11 | Target/Non-Target Uptake Ratio Heart/Lungs ([3]; 30 Minutes): 2.96 ± 0.43 | Target/Non-Target Uptake Ratio Heart/Kidneys ([3]; 40 Minutes): 0.58 ± 0.08 | Target/Non-Target Uptake Ratio Heart/Liver ([3]; 40 Minutes): 1.06 ± 0.17 | Target/Non-Target Uptake Ratio Heart/Lungs ([3]; 40 Minutes): 3 ± 0.51 | Target/Non-Target Uptake Ratio Heart/Kidneys ([3]; 60 Minutes): 0.6 ± 0.06 | Target/Non-Target Uptake Ratio Heart/Liver ([3]; 60 Minutes): 1.22 ± 0.2 | Target/Non-Target Uptake Ratio Heart/Lungs ([3]; 60 Minutes): 3.05 ± 0.52 | Target/Non-Target Uptake Ratio Heart/Kidneys ([3]; 90 Minutes): 0.6 ± 0.06 | Target/Non-Target Uptake Ratio Heart/Liver ([3]; 90 Minutes): 1.25 ± 0.33 | Target/Non-Target Uptake Ratio Heart/Lungs ([3]; 90 Minutes): 3.1 ± 0.49 | Target/Non-Target Uptake Ratio Heart/Kidneys ([3]; 120 Minutes): 0.63 ± 0.04 | Target/Non-Target Uptake Ratio Heart/Liver ([3]; 120 Minutes): 1.37 ± 0.26 | Target/Non-Target Uptake Ratio Heart/Lungs ([3]; 120 Minutes): 3.09 ± 0.56 | Heart biological distribution ([3]; 10 Minutes): 3.80 ± 0.44 % ID/g | Kidneys biological distribution ([3]; 10 Minutes): 15.33 ± 0.75 % ID/g | Liver biological distribution ([3]; 10 Minutes): 12.93 ± 0.70 % ID/g | Lungs biological distribution ([3]; 10 Minutes): 5.13 ± 0.06 % ID/g | Heart biological distribution ([3]; 20 Minutes): 3.97 ± 0.50 % ID/g | Kidneys biological distribution ([3]; 20 Minutes): 14.70 ± 1.14 % ID/g | Liver biological distribution ([3]; 20 Minutes): 14.00 ± 1.78 % ID/g | Lungs biological distribution ([3]; 20 Minutes): 4.70 ± 0.20 % ID/g | Heart biological distribution ([3]; 30 Minutes): 4.00 ± 0.30 % ID/g | Kidneys biological distribution ([3]; 30 Minutes): 14.53 ± 1.86 % ID/g | Liver biological distribution ([3]; 30 Minutes): 14.27 ± 1.97 % ID/g | Lungs biological distribution ([3]; 30 Minutes): 4.70 ± 0.26 % ID/g | Heart biological distribution ([3]; 40 Minutes): 3.73 ± 0.51 % ID/g | Kidneys biological distribution ([3]; 40 Minutes): 13.27 ± 1.65 % ID/g | Liver biological distribution ([3]; 40 Minutes): 16.37 ± 2.47 % ID/g | Lungs biological distribution ([3]; 40 Minutes): 4.80 ± 0.72 % ID/g | Heart biological distribution ([3]; 60 Minutes): 3.63 ± 0.49 % ID/g | Kidneys biological distribution ([3]; 60 Minutes): 12.23 ± 1.00 % ID/g | Liver biological distribution ([3]; 60 Minutes): 17.53 ± 2.85 % ID/g | Lungs biological distribution ([3]; 60 Minutes): 4.40 ± 0.44 % ID/g | Heart biological distribution ([3]; 90 Minutes): 3.77 ± 0.64 % ID/g | Kidneys biological distribution ([3]; 90 Minutes): 12.37 ± 1.75 % ID/g | Liver biological distribution ([3]; 90 Minutes): 19.67 ± 3.72 % ID/g | Lungs biological distribution ([3]; 90 Minutes): 4.20 ± 0.26 % ID/g | Heart biological distribution ([3]; 120 Minutes): 3.73 ± 0.58 % ID/g | Kidneys biological distribution ([3]; 120 Minutes): 12.40 ± 3.48 % ID/g | Liver biological distribution ([3]; 120 Minutes): 21.03 ± 2.78 % ID/g | Lungs biological distribution ([3]; 120 Minutes): 4.07 ± 0.15 % ID/g | Radioactivity in the liver compared with [^99mTc(MIBI)6]^+ ([3]; imaging, in words): clearly lower | Liver time-radioactivity curve relative to the myocardial curve ([3]; in words): lower than the myocardial curve
